According to patent US8703722B2, “Inhibitors of F18+ E coli binding” (priority 2008, dated 2014):

Assays:
[1] = system: recombinant F18 fimbriae-expressing Escherichia coli (pIH120); assay: Chromatogram binding assay: 35S-labelled F18 fimbriae-expressing E. coli to glycosphingolipids on thin-layer chromatograms; details: for Binding of F18-fimbriated E. coli (in words): chromatogram binding assay, F18-expressing strain HB101(pIH120); for Detection limit of binding of F18-fimbriated E. coli: dilutions of glycosphingolipids on thin-layer chromatograms
Procedure: Recombinant E. coli strains expressing whole F18 fimbriae (HB101(pIH120), or F18 fimbriae with deletion of the FedF adhesive subunit (HB101(pIH126)) (Imberechts et al., 1992; 1996), were grown on Iso Sensitest agar plates (Oxoid, Basingstoke, Hampshire, England) supplemented with ampicillin (100 μg/ml) at 37° C. over night. For metabolic labeling, the culture plates were supplemented with 10 μl ^35S-methionine (400 μCi; Amersham Pharmacia Biotech). Bacteria were harvested, washed three times in PBS, and resuspended in PBS containing 2% (w/v) bovine serum albumin, 0.1% (w/v) NaN3 and 0.1% (w/v) Tween 20 (BSA/PBS/TWEEN) to a bacterial density of 1×10^8 colony forming units/ml.
Aluminium- or glass-backed silica gel 60 high performance thin-layer chromatography plates (Merck, Darmstadt, Germany) were used for thin-layer chromatography, and eluted with chloroform/methanol/water (60:35:8, by volume) as solvent system. The different glycosphingolipids were applied to the plates in quantities of 0.002-4 μg of pure glycosphingolipids and 40 μg of glycosphingolipid mixtures. Chemical detection was done with anisaldehyde (Waldi D, 1962. Sprühreagentien für die dünnschicht-chromatographie, p. 496-515. In Stahl, E. (ed.), Dünnschicht-Chromatographie. Springer-Verlag, Berlin).
Binding of radiolabelled bacteria to glycosphingolipids on thin-layer chromatograms was done as described previously (Hansson G C, Karlsson K-A, Larson G, Strömberg N, Thurin J, 1985. Anal. Biochem. 146:158-163). Dried chromatograms were dipped in diethylether/n-hexane (1:5 v/v) containing 0.5% (w/v) polyisobutylmethacrylate for 1 min, dried, and then blocked with BSA/PBS/TWEEN for 2 h at room temperature. Thereafter, the plates were incubated with ^35S-labeled bacteria (1-5×10^6 cpm/ml) diluted in BSA/PBS/TWEEN for another 2 h at room temperature. After washing six times with PBS, and drying, the thin-layer plates were autoradiographed for 12 h using XAR-5 x-ray films (Eastman Kodak, Rochester, N.Y.).

[2] = system: F18 positive reference E. coli strain (107/86); assay: In vitro villous adhesion assay after treatment of porcine villi with agents; format: cell-based, Escherichia coli; details: villi of four pigs treated 1 h at room temperature; 1% Triton X-100; 10 mM NaIO4 in 0.2M sodium acetate pH 4.5
Excerpt: (§1) The nature of the F18R on porcine small intestinal villous enterocytes was investigated using an in vitro villous adhesion inhibition assay (Cox, E., Houvenaghel, A., 1993. Vet. Microbiol. 34(1), 7-18; Verdonck, F., Cox, E., van Gog, K., Van der Stede, Y., Duchateau, L., Deprez, P., Goddeeris, B. M., 2002. Vaccine 20(23-24), 2995-3004). Briefly, a 20 cm intestinal segment was collected from the mid jejunum of a euthanized pig, rinsed three times with ice cold PBS, and fixed with Krebs-Henseleit buffer (160 mM, pH 7.4) containing 1% (v/v) formaldehyde for 30 min at 4° C. Thereafter, the villi were gently scraped from the mucosae with a glass slide and stored in Krebs-Henseleit buffer at 4° C. Treatment of villi with acetone, methanol, 1% Triton® X-100, 10 mM NaIO4 in 0.2M sodium acetate, pH 4.5, or 0.2M sodium acetate, pH 4.5, without NaIO4, respectively, was performed at room temperature on a rotating wheel in a volume of 500 μl during 1 h. Next, the villi were washed 6 times with Krebs-Henseleit buffer followed by addition of 4×10^8 bacteria of the F18 positive reference E. coli strain (107/86), or the F4ac-expressing E. coli strain GIS 26, to an average of 50 villi in a total volume of 500 μl PBS, supplemented with 1% (w/v) D-mannose in order to prevent adhesion mediated by type 1 pili. These mixtures were incubated at room temperature for 1 h while being gently shaken. Villi were examined by phase-contrast microscopy at a magnification of 600, and the number of bacteria adhering along 50 μm brush border was quantitatively evaluated by counting the number of adhering bacteria at 20 randomly selected places, after which the mean bacterial adhesion was calculated.
(§2) To examine the character of the F18R, intestinal villi isolated from four pigs were treated with different agents that affect lipids or carbohydrates on the enterocyte cell membrane. Treatment was followed by assessment of adhesion of F18-fimbriated E. coli to the villus epithelium.

[3] = system: F4ac-expressing E. coli strain GIS 26; assay: In vitro villous adhesion assay after treatment of porcine villi with agents (control strain); format: cell-based, Escherichia coli; details: villi treated 1 h at room temperature; 1% Triton X-100; 10 mM NaIO4 in 0.2M sodium acetate pH 4.5
Excerpt: as §1, §2

[4] = system: F18-positive E. coli strain 107/86; assay: Carbohydrate inhibition in the in vitro villous adhesion assay (bacteria pre-incubated with saccharide); format: cell-based, Escherichia coli; details: for Inhibition of F18+ E. coli adherence to porcine intestinal villi: Example 18, 1 mg saccharide in 100 μl PBS
Excerpt: as §1
The F18-positive E. coli strain 107/86 (8×10^7 bacteria) was incubated with different concentrations (10 mg/ml, 1 mg/ml, […]) of blood group H type 1 pentasaccharide (Fucα2Galβ3GlcNAcβ3Galβ4Glc) or lacto-N-tetraose saccharide (Galβ3GlcNAcβ3Galβ4Glc) (Glycoseparations, Moscow, Russia) in a final volume of 100 μl PBS, for 1 h at room temperature, while being gently shaken. The mixtures were then added to the villi, and again incubated for 1 h at room temperature with gentle shaking. Thereafter, the villi were examined by phase-contrast microscopy at a magnification of 600, and the number of bacteria adhering along a […] brush border was quantitatively evaluated by counting the number of adhering bacteria at 20 randomly selected places, after which the mean bacterial adhesion was calculated. Villi of two different F18R-positive pigs were used, and the countings were performed in triplicate.
The F18-positive E. coli strain 107/86 (8×10^7 bacteria) was incubated with 1 mg of blood group H type 1 pentasaccharide (H5-1, Fucα2Galβ3GlcNAcβ3Galβ4Glc), blood group A type 1 hexasaccharide (A6-1, GalNAcα3(Fucα2)Galβ3GlcNAcβ3Galβ4Glc), blood group B type 1 hexasaccharide (B6-1, Galα3(Fucα2)Galβ3GlcNAcβ3Galβ4Glc) or lacto-N-tetraose saccharide (LNT, Galβ3GlcNAcβ3Galβ4Glc) (Elicityl, Grenoble, France) in a final volume of 100 μl PBS, for 1 h at room temperature, while being gently shaken. The mixtures were then added to the villi, and again incubated for 1 h at room temperature with gentle shaking. Thereafter, the villi were examined by phase-contrast microscopy, and adhering bacteria were quantified as described above. Villi of two different F18R-positive pigs were used, and the countings were performed in triplicate.
The mixtures were then added to the villi, and again incubated for 1 h at room temperature with gentle shaking. Thereafter, the villi were examined by phase-contrast microscopy, and adhering bacteria were quantified as described above. Villi of one F18R-positive pig was used, and the countings were performed in duplicate.

[5] = Example 17, 1 mg/ml saccharide, 100 μl PBS, 1 h pre-incubation, villi of two pigs
[6] = Example 17, 10 mg/ml saccharide, 100 μl PBS, 1 h pre-incubation, villi of two pigs
[7] = Example 17, 100 mg/ml saccharide (so in the source), 100 μl PBS, 1 h pre-incubation, villi of two pigs
[8] = 1 h pre-incubation, villi of two pigs

## GalNAcα3(Fucα2)Galβ4GlcNAcβ3Galβ4Glcβ1Cer [No. 17, reference compound]
[1]
  Binding of F18-fimbriated E. coli (in words): no type 2 core counterparts of these compounds were recognized

## Fucα2Galβ3GlcNAcβ3Galβ4Glcβ1Cer [No. 23]
[1]; listed as H type 1 pentaglycosylceramide
  Binding of F18-fimbriated E. coli (in words): bound
[1]
  Detection limit of binding of F18-fimbriated E. coli: 2 µg

## Galβ3GlcNAcβ3Galβ4Glcβ1Cer [No. 20, reference compound]
[1]
  Binding of F18-fimbriated E. coli (in words): devoid of FedF-mediated binding activity

## [Na+].[O-][I+3]([O-])([O-])[O-] [NaIO4]
[2]
  Adhesion of F18-fimbriated E. coli to porcine intestinal villi after treatment of the villi: completely abolished
[3]
  Adhesion of control F4ac-fimbriated E. coli strain to porcine intestinal villi after treatment of the villi: abolished

## C[C@@H]1O[C@@H](O[C@H]2C(O)O[C@H](CO)[C@H](O)[C@@H]2O)[C@@H](O)[C@H](O)[C@@H]1O (some centres unmarked) [blood group H disaccharide, Fucα2Gal]
[4]; Example 21, 0.2 mg in 100 μl PBS, villi of one pig
  Inhibition of adherence of F18-positive E. coli to porcine intestinal villi: 5.1%
[4]; Example 21, 1 mg in 100 μl PBS, villi of one pig
  Reduction of adherence of F18-positive E. coli to porcine intestinal villi: 83.7%

## Fucα2Galβ3(Fucα4)GlcNAcβ3Galβ4Glcβ1Cer [No. 22, reference compound]
[1]
  Binding of F18-fimbriated E. coli (in words): not recognized

## GalNAcα3(Fucα2)Galβ3GlcNAcβ3Galβ4Glcβ1Cer [A-I]
[1]
  Binding of F18-fimbriated E. coli (in words): F18-fimbriated E. coli binding

## Galα3(Fucα2)Galβ3GlcNAcβ3Galβ4Glcβ1Cer [No. 24]
[1]
  Binding of F18-fimbriated E. coli (in words): bound
  Detection limit of binding of F18-fimbriated E. coli: approximately 0.08 μg

## CO [methanol]
[2]
  Adhesion of F18-fimbriated E. coli to porcine intestinal villi after treatment of the villi: completely abolished
[3]
  Adhesion of control F4ac-fimbriated E. coli strain to porcine intestinal villi after treatment of the villi: no or only little effect

## Galα3(Fucα2)Galβ4GlcNAcβ3Galβ4Glcβ1Cer [No. 16, reference compound]
[1]
  Binding of F18-fimbriated E. coli (in words): no type 2 core counterparts of these compounds were recognized

## Fucα2Galβ3GalNAcβ4Galβ4Glcβ1Cer [No. 11, reference compound]
[1]
  Binding of F18-fimbriated E. coli (in words): absence of binding

## Galα3(Fucα2)Galβ3(Fucα4)GlcNAcβ3Galβ4Glcβ1Cer [No. 27]
[1]
  Binding of F18-fimbriated E. coli (in words): bound

## CC(=O)N[C@H]1[C@H](O[C@H]2[C@@H](O)[C@@H](CO)O[C@@H](O[C@H]3[C@H](O)[C@@H](O)C(O)O[C@@H]3CO)[C@@H]2O)O[C@H](CO)[C@@H](O)[C@@H]1O[C@@H]1O[C@H](CO)[C@H](O)[C@H](O)[C@H]1O[C@@H]1O[C@@H](C)[C@@H](O)[C@@H](O)[C@@H]1O (some centres unmarked) [H5-1, Fucα2Galβ3GlcNAcβ3Galβ4Glc]
[4]; [5]
  Reduction (inhibition) of adherence of F18-positive E. coli to porcine intestinal villi: 68.5%
[4]; [6]
  Reduction (inhibition) of adherence of F18-positive E. coli to porcine intestinal villi: 87.1%
[4]; [7]
  Inhibition of adherence of F18-positive E. coli to porcine intestinal villi: 1.4%
[4]; [8]
  Inhibition of F18+ E. coli adherence to porcine intestinal villi: 52.4%

## Fucα2Galβ4GlcNAcβ3Galβ4Glcβ1Cer [No. 14, reference compound]
[1]
  Binding of F18-fimbriated E. coli (in words): no type 2 core counterparts of these compounds were recognized

## Fucα2Galβ3GlcNAcβ3Galβ4Glcβ1Cer [O-I]
[1]
  Binding of F18-fimbriated E. coli (in words): F18 fimbriae-binding

## GalNAcα3(Fucα2)Galβ3(Fucα4)GlcNAcβ3Galβ4Glcβ1Cer [No. 26]
[1]
  Binding of F18-fimbriated E. coli (in words): bound
  Detection limit of binding of F18-fimbriated E. coli: 0.8 µg

## CC(=O)NC1C(OC2C(O)C(CO)OC(OC3C(O)C(CO)OC(OC4C(O)C(CO)OC(OC5C(CO)OC(O)C(O)C5O)C4O)C3NC(C)=O)C2OC2OC(C)C(O)C(O)C2O)OC(CO)C(O)C1O (centres unmarked) [A6-1, GalNAcα3(Fucα2)Galβ3GlcNAcβ3Galβ4Glc]
[4]; [8]
  Inhibition of F18+ E. coli adherence to porcine intestinal villi: 72.9%

## CC(=O)N[C@H]1[C@H](O[C@H]2[C@@H](O)[C@@H](CO)O[C@@H](O[C@H]3[C@H](O)[C@@H](O)C(O)O[C@@H]3CO)[C@@H]2O)O[C@H](CO)[C@@H](O)[C@@H]1O[C@@H]1O[C@H](CO)[C@H](O)[C@H](O)[C@H]1O (some centres unmarked) [LNT, Galβ3GlcNAcβ3Galβ4Glc, reference compound]
[4]; [5]
  Reduction (inhibition) of adherence of F18-positive E. coli to porcine intestinal villi: 5.8%
[4]; [6]
  Reduction (inhibition) of adherence of F18-positive E. coli to porcine intestinal villi: 5.8%
[4]; [7]
  Inhibition of adherence of F18-positive E. coli to porcine intestinal villi: 4.2%
[4]; [8]
  Inhibition of F18+ E. coli adherence to porcine intestinal villi: 2.8%

## GalNAcα3(Fucα2)Galβ3GalNAcβ3Galα4Galβ4Glcβ1Cer [No. 32]
[1]
  Detection limit of binding of F18-fimbriated E. coli: approximately 0.8 μg

## CC(=O)NC1C(OC2C(O)C(CO)OC(OC3C(CO)OC(O)C(O)C3O)C2O)OC(CO)C(O)C1OC1OC(CO)C(O)C(OC2OC(CO)C(O)C(O)C2O)C1OC1OC(C)C(O)C(O)C1O (centres unmarked) [B6-1, Galα3(Fucα2)Galβ3GlcNAcβ3Galβ4Glc]
[4]; [8]
  Inhibition of F18+ E. coli adherence to porcine intestinal villi: 86.8%

## GalNAcα3(Fucα2)Galβ3GlcNAcβ3Galβ4Glcβ1Cer [No. 25]
[1]; listed as A type 1 hexaglycosylceramide
  Binding of F18-fimbriated E. coli (in words): bound
[1]
  Detection limit of binding of F18-fimbriated E. coli: approximately 0.08 μg

## GalNAcα3(Fucα2)Galβ4(Fucα3)GlcNAcβ3Galβ4Glcβ1Cer [No. 19, reference compound]
[1]
  Binding of F18-fimbriated E. coli (in words): no type 2 core counterparts of these compounds were recognized
